Experimental data taken from US20250122225A1, “MASP-2 INHIBITORS AND METHODS OF USE” (Omeros Corporation, priority 2023, published 2025).
Where a name gives a salt, the structure may show the parent alone.

Columns and labels:
Assay type in all cases: biochemical
MASP-2 (CCP1-CCP2-SP) = biological target: T1, MASP-2 (CCP1-CCP2-SP) (Homo sapiens, UniProt O00187); assay: Enzymatic assay for MASP-2 inhibitory activity (fluorogenic substrate)
T1 construct: 15 μL of Enzyme MASP-2 (CCP1-CCP2-SP) in Assay Buffer
Procedure, shortened: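 Fluorescence was normalized between no-enzyme and DMSO-only controls to derive % activity, with IC50 taken as equivalent to Ki except for tight-binding inhibitors. Reactions ran 20 min at room temperature in HEPES pH 7.4/NaCl/Tween 20 buffer, using the C2-derived fluorogenic substrate, before acetic acid stop.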

[1] = test system: Lectin Pathway Activation in human serum; assay: Lectin Pathway Activation (LPA) assay in human serum, mannan-coated ELISA plate, C4c detection; settings: 1% human serum, read-out: LPA Functional Activity (IC50)
Method: Lectin Pathway Activation (LPA) Assay in Human Serum Treated with Compounds
A microtiter ELISA plate was coated with mannan (1 mg/ml) from Saccharomyces cerevisiae (Sigma-Aldrich®, M7504) overnight at 4° C. in coating buffer [33.3 mM Na2CO3, 166.67 mM NaHCO3]. The plate was blocked with 5% bovine serum albumin (BSA) (Sigma-Aldrich®, A3294) in 1×PBST [Phosphate Buffered Saline Solution (1.06 mM KH2PO4, 155.2 mM NaCl, 2.97 mM Na2HPO4^−·7H2O, pH 7.4), 0.05% Tween-20] shaking for 2 hours at room temperature. 1% human serum was incubated with serial dilutions of small compounds in 1× LPA+ Buffer [20 mM Hepes, pH 7.4, 140 mM NaCl, 2 mM MgCl2 (6H2O)] and incubated for 5 minutes at room temperature. 40 μL of this mixture was then added to the plate, and the plate was incubated at room temperature for 55 mins. Next, the reaction was stopped by adding 20 μL of EDTA Stop Solution [20 mM Hepes, pH7.4, 140 mM NaCl, 150 mM EDTA] to the plate. The plate was then washed 10× in wash buffer 1×PBST; 40 μL of Rabbit Anti Human C4c Antibody [Dako®, Q0369] diluted 1:20000 in wash buffer was added; and the plate was incubated shaking at room temperature for 30 minutes. The plate was washed [5× times]; 40 μL of Goat Anti-rabbit Antibody-HRP Conjugate [Southern Biotech®, 4050-05] diluted 1:10000 in wash buffer was added; and the plate was incubated shaking at room temperature for 30 minutes. After that, the plate was washed five times; 40 µL/well of Amplex® UltraRed Substrate Solution [1× LPA Buffer, 10 mM Amplex® UltraRed Stock Solution [Thermo Fisher Sci.®, A36006], 3% stabilized hydrogen peroxide [Sigma Aldrich®, 216763] was added; the plate was incubated at room temperature for 16 minutes; the reaction was stopped by adding 8 µL/well of Amplex® UltraRed Stop Solution [Thermo Fisher Sci.®, A33855] in 100% EtOH. Finally, the plate was read for fluorescence at Ex: 550 nm, Em: 580 nm on the i3x Microplate Reader.

human α-thrombin = biological target: T2, human α-thrombin (Homo sapiens, UniProt P00734); assay: Enzymatic assay for thrombin (fluorogenic peptide substrate Boc-VPR-AMC)
T2 construct: enzyme (human α-thrombin (BioPharm® Lab.)) in assay buffer; purchased BioPharm® Lab
Procedure, shortened: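 Assay conditions kept the reaction linear in time, enzyme and substrate, so IC50 approximated Ki apart from tight- or slow-binding cases. Boc-VPR-AMC cleavage by human α-thrombin proceeded 20 min at room temperature in Hepes pH 7.4/NaCl/Tween 20 buffer, then was acid-quenched and read by fluorescence.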

T1 sequence (O00187 445-686 limits assumed): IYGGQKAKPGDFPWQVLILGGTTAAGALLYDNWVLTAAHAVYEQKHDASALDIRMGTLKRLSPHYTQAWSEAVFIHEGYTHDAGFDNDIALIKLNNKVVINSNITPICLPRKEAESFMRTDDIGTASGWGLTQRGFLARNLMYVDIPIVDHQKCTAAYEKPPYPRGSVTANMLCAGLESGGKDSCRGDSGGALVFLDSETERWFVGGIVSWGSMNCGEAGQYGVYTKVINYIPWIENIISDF
T1 sequence (O00187 287-444 partner limits assumed): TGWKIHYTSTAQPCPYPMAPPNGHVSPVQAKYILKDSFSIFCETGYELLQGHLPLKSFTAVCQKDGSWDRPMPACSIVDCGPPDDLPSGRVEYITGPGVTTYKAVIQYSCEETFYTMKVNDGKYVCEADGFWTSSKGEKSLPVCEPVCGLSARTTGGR

Structure (SMILES) | Ki (MASP-2 (CCP1-CCP2-SP)) | IC50 [1] | Ki (human α-thrombin)
Cc1ccc(CNc2nc(Cl)c3n(c2=O)[C@H](C(=O)NCc2ccc(N)nc2C)CC3)cc1C [Compound 27, (S)-N-((6-amino-2-methylpyridin-3-yl)methyl)-1-chloro-3-((3,4-dimethylbenzyl)amino)-4-oxo-4,6,7,8-tetrahydropyrrolo[1,2-a]pyrazine-6-carboxamide trifluoroacetate] | < 500 nM | < 50 nM | 2500 to 10000 nM
Cc1cc(C)cc(CNc2ncc3n(c2=O)[C@H](C(=O)NCc2cc4cnccc4n2C)CC3)c1 [Compound 41, (S)-3-((3,5-dimethylbenzyl)amino)-N-((1-methyl-1H-pyrrolo[3,2-c]pyridin-2-yl)methyl)-4-oxo-4,6,7,8-tetrahydropyrrolo[1,2-a]pyrazine-6-carboxamide trifluoroacetate] | < 500 nM | < 50 nM | 500 to 2500 nM
COc1cc(C)cc(CNc2ncc3n(c2=O)[C@H](C(=O)NCc2cc4cnccc4[nH]2)CC3)c1 [Compound 48, (S)-N-((1H-pyrrolo[3,2-c]pyridin-2-yl)methyl)-3-((3-methoxy-5-methylbenzyl)amino)-4-oxo-4,6,7,8-tetrahydropyrrolo[1,2-a]pyrazine-6-carboxamide] | < 500 nM | < 50 nM | < 500 nM
Cc1cc(F)cc(CNc2ncc3n(c2=O)[C@H](C(=O)NCc2ccc(N)nc2C)CC3)c1 [Compound 69, (S)-N-((6-amino-2-methylpyridin-3-yl)methyl)-3-((3-fluoro-5-methylbenzyl)amino)-4-oxo-4,6,7,8-tetrahydropyrrolo[1,2-a]pyrazine-6-carboxamide] | < 500 nM | < 50 nM | < 500 nM
Cc1cc(F)cc(CNc2ncc3n(c2=O)[C@H](C(=O)NCc2cc4cnc(C)cc4[nH]2)CC3)c1 [Compound 71, (S)-3-((3-fluoro-5-methylbenzyl)amino)-N-((6-methyl-1H-pyrrolo[3,2-c]pyridin-2-yl)methyl)-4-oxo-4,6,7,8-tetrahydropyrrolo[1,2-a]pyrazine-6-carboxamide] | < 500 nM | < 50 nM | 10000 to 25000 nM
Cc1cc(C)cc([C@@H](CO)Nc2ncc3n(c2=O)[C@H](C(=O)NCc2cc4cnccc4[nH]2)CC3)c1 [Compound 75, (S)-N-((1H-pyrrolo[3,2-c]pyridin-2-yl)methyl)-3-(((S)-1-(3,5-dimethylphenyl)-2-hydroxyethyl)amino)-4-oxo-4,6,7,8-tetrahydropyrrolo[1,2-a]pyrazine-6-carboxamide] | < 500 nM | < 50 nM | < 500 nM
Cc1ccc(F)c(CNc2ncc3n(c2=O)[C@H](C(=O)NCc2cc4cnccc4[nH]2)CC3)c1 [Compound 78, (S)-N-((1H-pyrrolo[3,2-c]pyridin-2-yl)methyl)-3-((2-fluoro-5-methylbenzyl)amino)-4-oxo-4,6,7,8-tetrahydropyrrolo[1,2-a]pyrazine-6-carboxamide] | < 500 nM | < 50 nM | < 500 nM
Cc1cc(C)cc(CNc2ncc3n(c2=O)[C@H](C(=O)NCc2ccnc(N)c2)CC3)c1 [Compound 88, (S)-N-((2-aminopyridin-4-yl)methyl)-3-((3,5-dimethylbenzyl)amino)-4-oxo-4,6,7,8-tetrahydropyrrolo[1,2-a]pyrazine-6-carboxamide] | < 500 nM | 50 to 500 nM | < 500 nM
O=C(NCc1cc2cnccc2[nH]1)[C@@H]1CCc2c(C3=CCOCC3)nc(NCc3ccccc3)c(=O)n21 [Compound 120, (S)—N-((1H-pyrrolo[3,2-c]pyridin-2-yl)methyl)-3-(benzylamino)-1-(3,6-dihydro-2H-pyran-4-yl)-4-oxo-4,6,7,8-tetrahydropyrrolo[1,2-a]pyrazine-6-carboxamide] | < 500 nM | < 50 nM | > 25000 nM
Cc1nc(N)ccc1CNC(=O)[C@@H]1CCc2c(Cl)nc(NCc3ccccc3)c(=O)n21 [Compound 131, (S)-N-((6-amino-2-methylpyridin-3-yl)methyl)-3-(benzylamino)-1-chloro-4-oxo-4,6,7,8-tetrahydropyrrolo[1,2-a]pyrazine-6-carboxamide] | < 500 nM | < 50 nM | 500 to 2500 nM
Cc1nc(N)ccc1CNC(=O)[C@@H]1C[C@H](Cc2ccccc2)c2cnc(NC3CCC3)c(=O)n21 [Compound 140, (6S,8S)-N-((6-amino-2-methylpyridin-3-yl)methyl)-8-benzyl-3-(cyclobutylamino)-4-oxo-4,6,7,8-tetrahydropyrrolo[1,2-a]pyrazine-6-carboxamide] | < 500 nM | < 50 nM | < 500 nM
CC[C@H]1C[C@@H](C(=O)NCc2cc3cnccc3[nH]2)n2c1cnc(NCc1cc(C)cc(C)c1)c2=O [Compound 155, (6S,8S)-N-((1H-pyrrolo[3,2-c]pyridin-2-yl)methyl)-3-((3,5-dimethylbenzyl)amino)-8-ethyl-4-oxo-4,6,7,8-tetrahydropyrrolo[1,2-a]pyrazine-6-carboxamide] | < 500 nM | < 50 nM | < 500 nM
CC(C)(C)[C@@H](Nc1ncc2n(c1=O)[C@H](C(=O)NCc1cc3c(s1)CNC3)CC2)c1ccc(F)cc1 [Compound 280, (S)—N-((5,6-dihydro-4H-thieno[2,3-c]pyrrol-2-yl)methyl)-3-(((R)-1-(4-fluorophenyl)-2,2-dimethylpropyl)amino)-4-oxo-4,6,7,8-tetrahydropyrrolo[1,2-a]pyrazine-6-carboxamide] | < 500 nM | – | < 500 nM
Cc1cc(C)cc(CNc2ncc3n(c2=O)[C@H](C(=O)NCc2ccc4[nH]ncc4c2)CC3)c1 [Compound 281, (S)—N-((1H-indazol-5-yl)methyl)-3-((3,5-dimethylbenzyl)amino)-4-oxo-4,6,7,8-tetrahydropyrrolo[1,2-a]pyrazine-6-carboxamide] | < 500 nM | – | 500 to 2500 nM
Cc1cc(C)cc(CNc2ncc3n(c2=O)[C@H](C(=O)NCc2cccc4[nH]ncc24)CC3)c1 [Compound 282, (S)-N-((1H-indazol-4-yl)methyl)-3-((3,5-dimethylbenzyl)amino)-4-oxo-4,6,7,8-tetrahydropyrrolo[1,2-a]pyrazine-6-carboxamide] | 500 to 2500 nM | – | 2500 to 10000 nM
Cc1cc(C)cc(CNc2ncc3n(c2=O)[C@H](C(=O)NCc2cc(Cl)ccc2-n2cnnn2)CC3)c1 [Compound 284, (S)-N-(5-chloro-2-(1H-tetrazol-1-yl)benzyl)-3-((3,5-dimethylbenzyl)amino)-4-oxo-4,6,7,8-tetrahydropyrrolo[1,2-a]pyrazine-6-carboxamide] | < 500 nM | – | < 500 nM
O=C(NCc1cc2c(s1)CNC2)[C@@H]1CCc2cnc(NCc3cccc(-c4ccccc4)c3)c(=O)n21 [Compound 285, (S)-3-(([1,1′-biphenyl]-3-ylmethyl)amino)-N-((5,6-dihydro-4H-thieno[2,3-c]pyrrol-2-yl)methyl)-4-oxo-4,6,7,8-tetrahydropyrrolo[1,2-a]pyrazine-6-carboxamide trifluoroacetate] | < 500 nM | – | 500 to 2500 nM
Cc1ccccc1CNc1ncc2n(c1=O)[C@H](C(=O)NCc1cc3c(s1)CNC3)CC2 [Compound 286, trifluoroacetate] | < 500 nM | – | 500 to 2500 nM
